Laboratory results: patent US4177269A, “Novel 17-esters of 17α-hydroxy gestogens, compositions containing such compounds, processes for their preparation and methods of treatment therewith” (Aktiebolaget Leo, priority 1976, dated 1979)

Key:
Hepatome AH 130 = Hepatome AH 130 tumour growth inhibition in rats; assay type: in vivo, Sprague-Dawley rats; details: one i.p. injection, result in words
Description: (§1) LD50 is the dose that causes a 50 percent lethality of the animals, and ED50 is the dose that causes a 50 percent reduction of tumour size.
(§2) The experimental design and the interpretation of the results are in accordance with the standards set by the CCNSC (Cancer Chemotherpy Reports, January 1959 and December 1962).
(§3) Experimental animals: Sprague-Dawley rats.
Tumour implant: 5 × 10^6 tumour cells i.p.
(§4) Therapy: One injection i.p. on the day following implanta-
(§5) Termination: The animals are killed on the 8th day.
(§6) Evaluation: Weights of tumours of test animals are compared
(§7) with those of control animals.

[1] = test system: Ehrlich ascites tumour, ELD hyperdiploid; test: Ehrlich ascites tumour, ELD hyperdiploid (46 chromosomes), growth inhibition in mice; assay type: in vivo, SPF NMRI mice; details: one i.p. injection, result in words
Description: as §2
Ehrlich ascites tumour, ELD hyperdiploid
Experimental animals: SPF NMRI mice.
Tumour implant: 2 × 10^6 tumour cells i.p.
as §4, §5
Evaluation: Weight of tumours of test animals compared with
those of control animals.

[2] = test system: Walker carcinosarcoma 256; test: Walker carcinosarcoma 256 tumour growth inhibition in rats; assay type: in vivo, Sprague-Dawley rats; details: daily p.o. for 5 days, result in words
Description: as §1, §2
Walker carcinosarcoma 256.
as §3
Tumour implant: Tumour pieces with 2-4 mm diameter, sub-
Therapy: Daily p.o. administration for 5 days starting on
the day following implantation.
Termination: The animals are killed on the 9th day.
as §6, §7

CC(=O)[C@@]1(OC(=O)COC(=O)c2ccc(Cl)c(N(CCCl)CCCl)c2)CC[C@H]2[C@@H]3C[C@H](F)C4=CC(=O)CC[C@]4(C)[C@H]3CC[C@@]21C [3:25, 17α-[4-chloro-3-(N,N-bis(2-chloroethyl)amino)benzoyloxyacetoxy]-6α-fluoropregn-4-ene-3,20-dione]
antitumour activity (Hepatome AH 130): exhibit antitumour activity

CC(=O)[C@@]1(OC(=O)CCCOC(=O)CCCc2ccc(N(CCCl)CCCl)cc2)CC[C@H]2[C@@H]3C=C(Cl)C4=CC(=O)[C@@H]5C[C@@H]5[C@]4(C)[C@H]3CC[C@@]21C [3:24, 6-chloro-17α-[4-(4-(4-(N,N-bis(2-chloroethyl)amino)phenyl)butanoyloxy)butanoyloxy]-1α,2α-methylenepregna-4,6-diene-3,20-dione]
antitumour activity (Hepatome AH 130): exhibit antitumour activity

CC(=O)[C@@]1(OC(=O)CCCCNC(=O)c2ccc(C)c(N(CCBr)CCBr)c2)CC[C@H]2[C@@H]3C[C@H](F)C4=CC(=O)CC[C@]4(C)[C@H]3CC[C@@]21C [6:3, 17α-/5-(3-(N,N-bis(2-bromoethyl)amino)-4-methylbenzoylamino)pentanoyloxy/-6α-fluoropregn-4-ene-3,20-dione]
antitumour activity (Hepatome AH 130): exhibit antitumour activity

CC(=O)[C@@]1(OC(=O)CCCOC(=O)[C@@H](N)Cc2ccc(N(CCCl)CCCl)cc2)CC[C@H]2[C@@H]3CCC4=CC(=O)CC[C@]4(C)[C@H]3CC[C@@]21C [3:13, 17-[4-((2S)-2-amino-3-(4-(N,N-bis(2-chloroethyl)amino)phenyl)propanoyloxy)butanoyloxy]pregn-4-ene-3,20-dione]
antitumour activity (Hepatome AH 130): exhibit antitumour activity

CC(=O)[C@@]1(OC(=O)COC(=O)Cc2ccc(N(CCCl)CCCl)cc2)CC[C@H]2[C@@H]3C=C(C)C4=CC(=O)CC[C@]4(C)[C@H]3CC[C@@]21C [3:17, 17α-[4-(N,N-bis(2-chloroethyl)amino)phenylacetoxyacetoxy]-6-methylpregna-4,6-diene-3,20-dione]
antitumour activity (Hepatome AH 130): exhibit antitumour activity

CC(=O)[C@@]1(OC(=O)COC(=O)Oc2ccc(N(CCCl)CCCl)cc2)CC[C@H]2[C@@H]3CCC4=CC(=O)CC[C@]4(C)[C@H]3CC[C@@]21C [5:4, 17α-[4-(N,N-bis(2-chloroethyl)amino)phenoxycarbonyloxyacetoxy]pregn-4-ene-3,20-dione]
antitumour activity (Hepatome AH 130): exhibit antitumour activity
antitumour activity [1]: exhibit antitumour activity

CC(=O)[C@@]1(OC(=O)CCCOC(=O)c2ccc(C)c(N(CCCl)CCCl)c2)CC[C@H]2[C@@H]3C=C(C)C4=CC(=O)CC[C@]4(C)[C@H]3CC[C@@]21C [3:23, 17α-[4-(3-(N,N-bis(2-chloroethyl)amino)-4-methylbenzoyloxy)butanoyloxy]-6-methylpregna-4,6-diene-3,20-dione]
antitumour activity (Hepatome AH 130): exhibit antitumour activity

CC(=O)[C@@]1(OC(=O)COC(=O)[C@@H](N)Cc2ccccc2N(CCCl)CCCl)CC[C@H]2[C@@H]3CCC4=CC(=O)CC[C@]4(C)[C@H]3CC[C@@]21C [3:20, 17-[(2S)-2-amino-3-(2-(N,N-bis(2-chloroethyl)amino)phenyl)propanoyloxyacetoxy]pregn-4-ene-3,20-dione]
antitumour activity (Hepatome AH 130): exhibit antitumour activity

CC(=O)[C@@]1(OC(=O)COC(=O)CCOc2ccc(N(CCCl)CCCl)cc2)CC[C@H]2[C@@H]3CCC4=CC(=O)CC[C@]4(C)[C@H]3CC[C@@]21C [3:26, 17α-[3-(4-(N,N-bis(2-chloroethyl)amino)phenoxy)propionyloxyacetoxy]pregn-4-ene-3,20-dione]
antitumour activity (Hepatome AH 130): exhibit antitumour activity

CC(=O)[C@@]1(OC(=O)COC(=O)c2ccc(C)c(N(CCCl)CCCl)c2)CC[C@H]2[C@@H]3C=C(Cl)C4=CC(=O)CC[C@]4(C)[C@H]3CC[C@@]21C [3:18, 6-chloro-17α-[3-(N,N-bis(2-chloroethyl)amino)-4-methylbenzoyloxyacetoxy]pregna-4,6-diene-3,20-dione]
antitumour activity [2]: exhibit antitumour activity

CC(=O)[C@@]1(OC(=O)CCCOC(=O)CCCc2ccc(N(CCCl)CCCl)cc2)CC[C@H]2[C@@H]3C[C@H](C)C4=CC(=O)CC[C@]4(C)[C@H]3CC[C@@]21C [3:21, 17α-[4-(4-(4-(N,N-bis(2-chloroethyl)amino)phenyl)butanoyloxy)butanoyloxy]-6α-methylpregn-4-ene-3,20-dione]
antitumour activity [2]: exhibit antitumour activity

CC(=O)[C@@]1(OC(=O)CCCNC(=O)C(C)(C)c2ccc(N(CCCl)CCCl)cc2)CC[C@H]2[C@@H]3CCC4=CC(=O)CC[C@@H]4[C@H]3CC[C@@]21C [6:2, 17α-/4-(2-(4-(N,N-bis(2-chloroethyl)amino)phenyl)-2-methylpropanoylamino)butyanoyloxy/-19-norpregn-4-ene-3,20-dione]
antitumour activity (Hepatome AH 130): exhibit antitumour activity

C=C1C[C@H]2[C@@H]3C=C(Cl)C4=CC(=O)CC[C@]4(C)[C@H]3CC[C@]2(C)[C@@]1(OC(=O)COC(=O)Nc1ccc(N(CCCl)CCCl)cc1OC)C(C)=O [5:2, 6-chloro-17α-/4-(N,N-bis(2-chloroethyl)amino)-2-methoxyphenylcarbamoyloxyacetoxy/-16-methylenepregna-4,6-diene-3,20-dione]
antitumour activity (Hepatome AH 130): exhibit antitumour activity

CC(=O)[C@@]1(OC(=O)CCCNC(=O)c2ccc(C)c(N(CCCl)CCCl)c2)CC[C@H]2[C@@H]3CCC4=CC(=O)CC[C@]4(C)[C@H]3CC[C@@]21C [6:4]
antitumour activity (Hepatome AH 130): exhibit antitumour activity
antitumour activity [1]: exhibit antitumour activity

CC(=O)[C@@]1(OC(=O)COC(=O)[C@@H](N)Cc2cccc(N(CCCl)CCCl)c2)CC[C@H]2[C@@H]3CCC4=CC(=O)CC[C@]4(C)[C@H]3CC[C@@]21C [3:19, 17-[(2S)-2-amino-3-(3-(N,N-bis(2-chloroethyl)amino)phenyl)propanoyloxyacetoxy]pregn-4-ene-3,20-dione]
antitumour activity (Hepatome AH 130): exhibit antitumour activity

CC(=O)[C@@]1(OC(=O)COC(=O)CCCc2ccc(N(CCCl)CCCl)cc2)CC[C@H]2[C@@H]3C=C(Cl)C4=CC(=O)[C@@H]5C[C@@H]5[C@]4(C)[C@H]3CC[C@@]21C [3:11, 6-chloro-17α-[4-(4-(N,N-bis(2-chloroethyl)amino)phenyl)butanoyloxyacetoxy]-1α,2α-methylenepregna-4,6-diene-3,20-dione]
antitumour activity [2]: exhibit antitumour activity
antitumour activity [1]: exhibit antitumour activity

CC(=O)[C@@]1(OC(=O)CCCCOC(=O)C(N)Cc2ccc(N(CCCl)CCCl)cc2)CC[C@H]2[C@@H]3C[C@H](F)C4=CC(=O)CC[C@]4(C)[C@H]3CC[C@@]21C (stereo partly drawn) [3:10, 17α-/5-(2-amino-3-(4-(N,N-bis(2-chloroethyl)amino)phenyl)propanoyloxy)pentanoyloxy/-6α-fluoropregn-4-ene-3,20-dione]
antitumour activity (Hepatome AH 130): exhibit antitumour activity

CC(=O)[C@@]1(OC(=O)COC(=O)[C@@H](N)Cc2ccc(N(CCCl)CCCl)cc2)CC[C@H]2[C@@H]3CCC4=CC(=O)CC[C@]4(C)[C@H]3CC[C@@]21C [3:12, 17-[(2S)-2-amino-3-(4-(N,N-bis(2-chloroethyl)amino)phenyl)propanoyloxyacetoxy]pregn-4-ene-3,20-dione]
antitumour activity [2]: exhibit antitumour activity
antitumour activity [1]: exhibit antitumour activity

CC(=O)[C@@]1(OC(=O)COC(=O)Oc2ccc(N(CCCl)CCCl)cc2)[C@H](C)C[C@H]2[C@@H]3C=C(Cl)C4=CC(=O)CC[C@]4(C)[C@H]3CC[C@@]21C [5:3, 6-chloro-17α-/4-(N,N-bis(2-chloroethyl)amino)phenoxycarbonyloxyacetoxy/-16α-methylpregna-4,6-diene-3,20-dione]
antitumour activity (Hepatome AH 130): exhibit antitumour activity

CC(=O)N[C@@H](Cc1ccc(N(CCCl)CCCl)cc1)C(=O)OCCCC(=O)O[C@]1(C(C)=O)CC[C@H]2[C@@H]3CCC4=CC(=O)CC[C@]4(C)[C@H]3CC[C@@]21C [3:15, 17-[4-((2S)-2-acetamido-3-(4-(N,N-bis(2-chloroethyl)amino)phenyl)propanoyloxy)butanoyloxy]pregn-4-ene-3,20-dione]
antitumour activity (Hepatome AH 130): exhibit antitumour activity

CC(=O)[C@@]1(OC(=O)CNC(=O)c2ccc(C)c(N(CC(C)Cl)CC(C)Cl)c2)CC[C@H]2[C@@H]3C[C@H](C)C4=CC(=O)CC[C@]4(C)[C@H]3CC[C@@]21C (stereo partly drawn) [4:2, 17α-/3-(N,N-bis(2-chloropropyl)amino)-4-methylbenzoylaminoacetoxy/-6α-methylpregn-4-ene-3,20-dione]
antitumour activity (Hepatome AH 130): exhibit antitumour activity

CC(=O)[C@@]1(OC(=O)C(C)OC(=O)/C=C/c2ccccc2N(CCCl)CCCl)CC[C@H]2[C@@H]3C=C(C)C4=CC(=O)CC[C@]4(C)[C@H]3CC[C@@]21C (stereo partly drawn) [3:9, 17α-/2-((2E)-3-(2-(N,N-bis(2-chloroethyl)amino)phenyl)propenoyloxy)propanoyloxy/-6-methylpregna-4,6-diene-3,20-dione]
antitumour activity (Hepatome AH 130): exhibit antitumour activity
antitumour activity [1]: exhibit antitumour activity

CC(=O)[C@@]1(OC(=O)C(C)OC(=O)CCCCc2ccc(N(CCCl)CCCl)cc2)CC[C@H]2[C@@H]3C=C(Cl)C4=CC(=O)CC[C@]4(C)[C@H]3CC[C@@]21C (stereo partly drawn) [3:8, 6-chloro-17α-/2-(5-(4-(N,N-bis(2-chloroethyl)amino)phenyl)pentanoyloxy)propanoyloxy/pregna-4,6-diene-3,20-dione]
antitumour activity (Hepatome AH 130): exhibit antitumour activity
antitumour activity [1]: exhibit antitumour activity
